Patent US7132547B2, “Preventives/remedies for urinary disturbance” (priority 2001, dated 2006)
Counter-ions that a name gives are not always drawn. Each block holds one compound with its values, some of them ahead of it.

Tests used:
[1] = target: T1, human erythrocyte-derived acetylcholinesterase (Homo sapiens, UniProt P22303); assay: Measurement of acetylcholinesterase inhibitory activity (acetylthiocholine / Ellman method); assay type: biochemical; conditions: 50% inhibition concentration, repeated at least three times, read-out: AchE: IC50
T1 construct: Human erythrocyte-drived acetylcholinesterase (Sigma) was dissolved in distilled water; purchased Sigma; host or cells: human erythrocytes (natural source)
T1 sequence (P22303 32-617 isoform P22303-2 limits assumed): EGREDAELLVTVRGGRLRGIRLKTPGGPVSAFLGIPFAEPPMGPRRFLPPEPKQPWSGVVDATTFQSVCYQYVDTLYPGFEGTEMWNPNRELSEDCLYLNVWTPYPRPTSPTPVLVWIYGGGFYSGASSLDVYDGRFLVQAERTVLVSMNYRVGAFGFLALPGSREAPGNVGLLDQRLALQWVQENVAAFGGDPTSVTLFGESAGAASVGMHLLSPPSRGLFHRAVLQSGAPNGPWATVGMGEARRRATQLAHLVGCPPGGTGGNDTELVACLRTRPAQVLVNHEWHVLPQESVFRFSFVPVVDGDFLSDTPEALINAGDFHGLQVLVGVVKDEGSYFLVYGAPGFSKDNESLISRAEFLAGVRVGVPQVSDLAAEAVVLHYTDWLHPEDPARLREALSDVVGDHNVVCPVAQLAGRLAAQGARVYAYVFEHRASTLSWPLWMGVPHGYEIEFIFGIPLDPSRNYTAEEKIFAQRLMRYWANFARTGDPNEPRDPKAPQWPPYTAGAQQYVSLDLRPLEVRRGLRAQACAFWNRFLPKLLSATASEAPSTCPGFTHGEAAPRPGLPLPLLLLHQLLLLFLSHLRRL
Method: a) Measurement of Acetylcholinesterase Inhibitory Activity
Acetylcholinesterase inhibitory activity of Example compounds was measured using human erythrocyte-derived acetylcholinesterase by an acetylthiocholine method (Ellman method).
Human erythrocyte-drived acetylcholinesterase (Sigma) was dissolved in distilled water to the concentration of 0.2 IU/mL to obtain an enzyme specimen. 20 μL of a drug solution, 30 μL of 80 mM Tris-HCL (pH 7.4), 50 μL of an enzyme specimen and 50 μL of 5 mM 5,5-dithio-bis (2-nitrobenzoic acid)(Sigma) were dispensed on a 96-well microplate, and this was shaken for 10 seconds. 50 μL of 4 mM acetylthiocholine iodide (Sigma) was added, this was shaken again and, immediately after, increase in absorbance at 414 nm was measured at 30 second intervals for 10 minutes. Enzyme activity was measured by the following equation: R=5.74×10^−7×ΔA (wherein R represents enzyme activity (mol), and ΔA represents increase in absorbance at 414 nm)
Regarding each compound, the experiment was repeated at least three times to obtain 50% inhibition concentration (IC50). According to the similar method to the above-mentioned, acetylcholinesterase inhibitory activity of distigmine which is a known acetylcholinesterase inhibitor was measured.

[2] = target: T2, human adrenaline α1A receptor (Homo sapiens, UniProt P35348); assay: Measurement of α1A receptor binding inhibitory activity ([3H]-Prazosin binding to CHO-K1 membrane fraction); conditions: concentration reducing [3H]-Prazosin (2.5 nM) binding to the membrane fraction to 50%
T2 construct: expressed in transfected cells; membrane fraction
T2 sequence (P35348 1-466): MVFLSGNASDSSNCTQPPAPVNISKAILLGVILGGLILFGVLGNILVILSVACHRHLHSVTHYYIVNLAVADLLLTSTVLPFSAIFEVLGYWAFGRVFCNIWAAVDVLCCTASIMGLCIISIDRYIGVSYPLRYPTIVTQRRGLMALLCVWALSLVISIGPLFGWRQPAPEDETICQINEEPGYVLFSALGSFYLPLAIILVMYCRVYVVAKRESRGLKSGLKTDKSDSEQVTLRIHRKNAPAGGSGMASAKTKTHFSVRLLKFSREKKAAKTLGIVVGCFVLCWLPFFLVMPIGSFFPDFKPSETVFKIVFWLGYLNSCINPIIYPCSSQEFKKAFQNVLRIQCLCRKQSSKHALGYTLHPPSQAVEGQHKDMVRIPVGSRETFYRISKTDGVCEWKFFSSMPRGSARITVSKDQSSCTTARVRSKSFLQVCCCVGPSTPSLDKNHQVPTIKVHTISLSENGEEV
Method: b) Measurement of α1A Receptor Binding Inhibitory Activity
The following gene manipulation method was carried out according to the method described in a textbook (Miniatis et al., Molecular Cloning, Cold Spring Harbor Laboratory, 1989) or the method described in protocol attached to a reagent.
(i) Preparation of Expression Plasmid for Human Adrenaline α1A Receptor
An adrenaline α1A receptor gene was cloned from a human liver cDNA by a PCR method. A PCR reaction was performed with Gene Amp PCR System 9700 (Applied Biosystems) using 200 ng of a human liver cDNA library (TAKARA SHUZO Co., Ltd.) as a template and using TaKaRa Pyrobest DNA Polymerase (TAKARA SHUZO CO., Ltd) and adding each 50 pmol of a primer set 5′-[…]-3′ [SEQ ID No.: 1] and 5′-[…]-3[SEQ ID No.: 2] prepared making reference to a nucleotide sequence of an adrenaline α1A receptor gene which was reported by Hirasawa A. et al. (Biochem. Biophys. Res. Commun., 195, 902–909(1993)) (reaction condition: 45 cycles of 15 seconds at 94° C., and 3 minutes 30 seconds at 68° C.).
The obtained PCR fragment was digested with restriction enzymes Eco RI (TAKARA SHUZO Co. Ltd.) and Sal I. (TAKARA SHUZO Co. Ltd.), and agarose gel electrophoresis was performed to recover DNA fragments. The DNA fragments were mixed with an animal cell expression plasmid pMSR αneo (Administration No. A99–0013) which had been digested with Eco RI and Sal I, ligated with DNA Ligation Kit Ver. 2 (TAKARA SHUZO Co. Ltd.), and a competent cell of Esherichia coli JM109 was transformed to obtain a plasmid pMSR αneoA dreα1A.
(ii) Introduction of Plasmid for Expression of Human Adrenaline α1A Receptor into CHO-K1 Cell and Preparation of Membrane Fraction
CHO-K1 cells which had been subcultured in a 150 cm^2 culturing flask (Corning Coaster) using Ham F12 medium (Invitrogen) containing 10% fetal bovine serum (TRACE SCIENTIFIC) was peeled with 0.5 g/L trypsin-0.2 g/L EDTA(Invitrogen), cells were washed with D-PBS(−) (Invitrogen), centrifuged (1000 rpm, 5 min.), and suspended in D-PBS(−). […]

[3] = system: Hartley male guinea pigs; assay: Effect on blood pressure in anesthetized guinea pigs; assay type: in vivo, guinea pig
Method: Hartley male guinea pigs (Slc) weighing 300 to 350 g was anesthetized with urethane (1.2 g/kg), and retained, a cervical region was incised to expose a left common carotid artery. A polyethylene tube filled with physiological saline containing heparin (10 U.I./ml) was inserted into an artery, and blood pressure was measured with a pressure transducer. A cannulae for administering test compound was inserted into a vein at an end of left hind leg, and a test compound dissolved in distilled water was administered therethrough at 0.5 mL/kg. The blood pressure was recorded at 20 Hz using an analogue data inputting apparatus (MP-100, BIOPAC Systems), and analyzed by analyzing software (AcqKnowledge 3.5.3, BIOPAC Systems). Example compound and tamsulosin were studied for a dose at which effects were recognized in the aforementioned test a (Pressure Flow Study), and an average blood pressure just before administration of test compound and an average blood pressure 15 minutes after administration were measured. Data were statistically treated by Paired t-test.

[4] = system: Hartley male guinea pigs loaded with phenylephrine; assay: Pressure Flow Study using guinea pigs loaded with phenylephrine; assay type: in vivo, guinea pig; conditions: i.v., tamsulosin 0.01 mg/kg, Example 20 0.1 mg/kg, urethane-anesthetized, phenylephrine 3 μg/animal/min
Method: Hartley male guinea pigs (Slc) weighing 300 to 350 g was anesthetized with urethane (1.2 g/kg, i.p.), and a median was incised to expose bladder. Two polyethylene tubes were inserted into bladder, and one of them was used for injecting a physiological saline and the other was used for measuring a bladder internal pressure. A cannulae was inserted into a left femoral vein, and phenylephrine was continuously administered intravenously at 3 μg/animal/min until the completion of experiment. A physiological saline was injected into bladder at a rate of 0.3 mL/min, and injection was stopped when urination was confirmed. The urinated urine weight was measured with an electron balance (HX-400, A & D) at real time. Analogue data of bladder internal pressure and urine weight were inputted into an AD transducer (MP-100, BIOPAC Systems), and digital signals were analyzed with exclusive analyzing software (AcqKnowledge 3.5.3, BIOPAC Systems). The sampling rate of data was 10 Hz, and data of urination amount and urine flow rate were subjected to a lowcut filter at 0.5 Hz in order to remove noises. The value of urine weight was differentiated to calculate urine flow rate (Q), and maximum urine flow rate (Qmax) at urination and bladder internal pressure (Pves (Qmax)) at maximum urine flow were calculated. The urination weight 1 g was converted into 1 mL to calculate the urination amount, and divided by bladder volume to obtain voiding efficiency (Voiding Efficiency). Example compound was dissolved in DMSO, and the solution was intravenously administered at 0.5 mL/kg. 10 minutes after administration of test compound, urinary reflection was recorded again, and change in urine flow rate (ΔQmax), and change in bladder internal pressure (ΔPves(Qmax)) and voiding efficiency were assessed. The change in urine flow rate (ΔQmax) and change in bladder internal pressure (ΔPves. (Qmax)) were an amount of change (Δ value) obtained by subtracting each value before administration of test compound from each value after administration, and voiding efficiency was assessed by a relative value (% of pre-value) of after administration of test compound relative to before administration. Tamsulosin which is a known α1 receptor antagonist was measured similarly. A significance diffenence was tested by a Dunnett test by comparing with each value of a vehicle (DMSO)-administered group.

[5] = 10 minutes after administration minus before

SMILES: Cl.O=C(CCC1CCN(CC(O)c2ccccc2)CC1)c1cc2c3c(c1)CCN3C(=O)CC2 (racemic)
melting point: 235 to 237 °C

SMILES: Cl.O=C1CCc2cc(C(=O)[C@H]3CC[C@H](CNCCc4ccccc4)CC3)cc3c2N1CC3 (stereo in doubt)
melting point: 252 to 254 °C

SMILES: CN(CCCCCCN(C)C(=O)Oc1ccc[n+](C)c1)C(=O)Oc1ccc[n+](C)c1 [Distigmine, distigmine, reference compound]
IC50 [1]: 723 nM

SMILES: O=C(CCC1CCN(CCc2cccc(F)c2)CC1)c1cc2c3c(c1)CCN3C(=O)CC2 [Example 84, 8-(3-[1-[2-(3-Fluorophenyl)ethyl]-4-piperidinyl]propanoyl)-1,2,5,6-tetrahydro-4H-pyrrolo[3,2,1-ij]quinolin-4-one hydrochloride]
IC50 [2]: 236 nM
IC50 [1]: 169 nM

SMILES: CCOc1ccccc1OCCN[C@H](C)Cc1ccc(OC)c(S(N)(=O)=O)c1 [tamsulosin, Tamsulosin, reference compound]
reduction of blood pressure ([3]; 0.01 mg/kg, i.v.): about 40%
Blood pressure, after administration ([3]; average blood pressure 15 minutes after i.v. administration, tamsulosin 0.01 mg/kg, Example 20 0.1 mg/kg): 32.9 ± 3.0 mmHg
Blood pressure, before administration ([3]; average blood pressure just before i.v. administration, tamsulosin 0.01 mg/kg, Example 20 0.1 mg/kg): 54.5 ± 2.5 mmHg
change in bladder internal pressure (ΔPves(Qmax)) [4, 5]: −3.56 ± 1.09 cmH2O
change in maximum urine flow rate (ΔQmax) [4, 5]: 0.036 ± 0.014 mL/s
voiding efficiency (% of pre-value) ([4]; after administration relative to before): 118.5 ± 13.4 %

SMILES: COc1ccccc1N1CCN(CCCNc2cc(=O)n(C)c(=O)n2C)CC1 [urapidil, reference compound]
IC50 [2]: 357 nM

Second part, the compound after the results:

melting point: 211 to 213 °C
SMILES: CC(Cc1ccccc1)N1CCC(CCC(=O)c2cc3c4c(c2)CCN4C(=O)CC3)CC1.Cl (racemic)

melting point: 111 to 113 °C
SMILES: Cl.O=C(CCC1CCN(C2CCc3ccccc32)CC1)c1cc2c3c(c1)CCN3C(=O)CC2 (racemic)

melting point: 223 to 225 °C
SMILES: Cl.O=C(CCC1CCN(C2CCc3ccccc3C2)CC1)c1cc2c3c(c1)CCN3C(=O)CC2 (racemic)
